As a reminder, the GI50 is the concentration at which growth is held to half of that of the control.

From ChEMBL document CHEMBL1201862, “PubChem BioAssay data set” (2004) come the findings set out here.

Test systems include HCT-116; HCT-15; A549; NCI-H460; SK-MEL-5; Malme-3M; M14; RXF 393; HOP-92; OVCAR-3; DU-145; LOX IMVI; SNB-19; SK-OV-3; MDA-MB-231; MDA-MB-435; NCI-H522; EKVX; SR; SK-MEL-2.
Holding throughout (assay): DTP human tumour cell line panel, 48 h

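Five compound concentrations were applied to cells in 96-well plates for 48 hours; endpoints were derived by simple linear interpolation of the resulting dose-response curve. Here, GI50 denotes the concentration required for 50% inhibition of growth.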 Activity calls are given as the source filed them. Cut-off read from the data, not from the text of the source: active = GI50 up to about 1.1 µM and inactive = higher.

Consider `CC(C)CCC[C@@H](C)[C@H]1CC[C@H]2[C@@H]3CC[C@H]4C[C@H](N)CC[C@]4(C)[C@H]3CC[C@]12C`, for which the GI50 in the test on HCT-116 was 30.1 µM (inactive); in the test on HCT-15, 24.8 µM; in the test with A549 it was 16.9 µM (inactive); in the test with NCI-H460, 22 µM (inactive); in the test with SK-MEL-5, 21.5 µM (inactive); in the test with Malme-3M it was 17.2 µM (inactive). Also, the GI50 in the test on M14 was 13.8 µM (inactive); in the test on RXF 393 it was 22.2 µM (inactive); in the test with HOP-92 it was 11.7 µM (inactive); in the test with OVCAR-3 it was 26.6 µM (inactive); in the test with DU-145, 16.4 µM (inactive); in the test with LOX IMVI, 21.3 µM (inactive). Further, the GI50 in the test with SNB-19 is 15.6 µM (inactive); with SK-OV-3, 22.6 µM (inactive); with MDA-MB-231, 2.84 µM (inactive); with MDA-MB-435, 27.1 µM (inactive); with NCI-H522 it was 21 µM (inactive); in the test with EKVX, 17.7 µM (inactive).
For `O=C(Nc1cccc(C(F)(F)F)c1)O/N=C(/Cl)CCl`, the GI50 is 55.7 µM (inactive) in the test with HCT-116; 46.3 µM in the test with HCT-15; > 100 µM (inactive) with A549; > 100 µM (inactive) with NCI-H460; 40.7 µM (inactive) in the test on SK-MEL-5; > 100 µM (inactive) in the test on Malme-3M. Besides, the GI50 was > 100 µM (inactive) with M14; 22 µM (inactive) in the test with HOP-92; 38.9 µM (inactive) with OVCAR-3; 22.6 µM (inactive) with SR; > 100 µM (inactive) with DU-145; 19 µM (inactive) with LOX IMVI. For the same molecule, the GI50 in the test with SNB-19 was > 100 µM (inactive); in the test on SK-OV-3, > 100 µM (inactive); in the test on SK-MEL-2, 67.6 µM (inactive); with MDA-MB-231, 17.1 µM (inactive); in the test with EKVX it was > 100 µM (inactive).
As to `C=C[C@H]1CN2CC[C@H]1C[C@@H]2[C@@H](O)c1ccnc2ccccc12` [CINCHONINE], the GI50 is > 100 µM (inactive) in the test with HCT-116; greater than 100 µM with HCT-15; > 100 µM (inactive) in the test on A549; > 100 µM (inactive) in the test on NCI-H460; > 100 µM (inactive) with SK-MEL-5; > 100 µM (inactive) with Malme-3M. In addition, the GI50 in the test with M14 was 38.1 µM (inactive); with RXF 393, > 100 µM (inactive); in the test with OVCAR-3 it was > 100 µM (inactive); with DU-145 it was > 100 µM (inactive); in the test on LOX IMVI, 5.4 µM (inactive); in the test on SNB-19, > 100 µM (inactive). Moreover, the GI50 with SK-OV-3 was > 100 µM (inactive); in the test on SK-MEL-2 it was > 100 µM (inactive); with MDA-MB-231, > 100 µM (inactive); in the test on MDA-MB-435, > 100 µM (inactive); with NCI-H522, > 100 µM (inactive); with EKVX it was 73.3 µM (inactive).
With `CC1=C(C)C(=O)OC(C(C)(O)C2(O)CC3OC34C3CC(O)C56OC5C=CC(=O)C6(C)C3CCC42C)C1` (centres undefined), the GI50 was 1.38 µM (inactive) in the test on HCT-116; 0.791 µM in the test on HCT-15; 3.33 µM (inactive) in the test on A549; 1.45 µM (inactive) in the test with NCI-H460; 1.67 µM (inactive) in the test on SK-MEL-5; 0.762 µM (active) with Malme-3M. Moreover, the GI50 in the test with M14 was 1.27 µM (inactive); with RXF 393, 2.4 µM (inactive); with HOP-92 it was 1.82 µM (inactive); in the test with OVCAR-3, 1.19 µM (inactive); in the test with DU-145, 3.4 µM (inactive); with LOX IMVI, 1.79 µM (inactive). The GI50 in the test on SNB-19 is 4.12 µM (inactive); in the test on SK-OV-3, 3.9 µM (inactive); with SK-MEL-2, 2.59 µM (inactive); in the test on MDA-MB-231, 1.78 µM (inactive); in the test on MDA-MB-435, 1.15 µM (inactive); in the test on NCI-H522, 0.361 µM (active). Besides, the GI50 in the test with EKVX is 2.36 µM (inactive).
For the molecule `CCOC(=O)c1sc2c(c1OC(=O)c1ccco1)c(=O)n(-c1ccccc1)c(=S)n2-c1ccccc1`, the GI50 was 29.7 µM (inactive) with HCT-116; 32.1 µM in the test with HCT-15; 38.6 µM (inactive) with A549; 17.7 µM (inactive) in the test with NCI-H460; 15.8 µM (inactive) with SK-MEL-5; 15.8 µM (inactive) in the test with Malme-3M. Besides, the GI50 was 28.2 µM (inactive) with M14; 22.1 µM (inactive) in the test on RXF 393; 30.2 µM (inactive) with HOP-92; 26.5 µM (inactive) in the test on OVCAR-3; 52.6 µM (inactive) in the test with DU-145; 25.6 µM (inactive) in the test on LOX IMVI. The GI50 was 33.2 µM (inactive) with SNB-19; > 100 µM (inactive) in the test on SK-OV-3; 28.1 µM (inactive) with MDA-MB-231; 28.1 µM (inactive) in the test with MDA-MB-435; > 100 µM (inactive) with NCI-H522; 21.3 µM (inactive) in the test with EKVX.
Consider `CN(C)c1ccc(/C=C2\N=C(NNc3ccccc3)NC2=O)cc1`, for which the GI50 in the test on HCT-116 was 22.9 µM (inactive); in the test with HCT-15 it was 22 µM; in the test with A549, 20.4 µM (inactive); in the test with NCI-H460 it was 19.1 µM (inactive); with Malme-3M it was 38.2 µM (inactive); in the test on M14 it was 37.3 µM (inactive). Further, the GI50 was 18.7 µM (inactive) with RXF 393; 17.3 µM (inactive) in the test on HOP-92; 16 µM (inactive) in the test on OVCAR-3; 28.4 µM (inactive) in the test with DU-145; 27.8 µM (inactive) in the test on LOX IMVI; 35.6 µM (inactive) with SNB-19. Also, the GI50 was 27.5 µM (inactive) with SK-OV-3; 18.7 µM (inactive) with SK-MEL-2; 13.7 µM (inactive) in the test on MDA-MB-231; 21.5 µM (inactive) with MDA-MB-435; 18.8 µM (inactive) in the test with NCI-H522; 19 µM (inactive) with EKVX.
Take `CC1=Nc2c(C#N)ncn2N=C(C)C1`: the GI50 in the test on HCT-116, in the test with A549, in the test with NCI-H460, in the test with SK-MEL-5, with M14 and in the test on RXF 393 was > 100 µM (inactive) in each case. In addition, the GI50 in the test on HOP-92 was > 100 µM (inactive); with OVCAR-3 it was > 100 µM (inactive); with SR, > 100 µM (inactive); in the test on DU-145 it was > 100 µM (inactive); with LOX IMVI, > 100 µM (inactive); with SK-OV-3, 49 µM (inactive). Also, the GI50 in the test with SK-MEL-2, in the test with MDA-MB-231 and in the test with MDA-MB-435 was > 100 µM (inactive) in each case.
Turning to `Cc1cn(CCCCCOC(=O)NC(CCCNC(N)=O)C(=O)O)c(=O)[nH]c1=O` (centres undefined), the GI50 with HCT-116 is > 100 µM (inactive); in the test with HCT-15, greater than 100 µM; with A549 it was > 100 µM (inactive); with NCI-H460, > 100 µM (inactive); in the test with M14 it was > 100 µM (inactive); in the test on RXF 393 it was > 100 µM (inactive). Also, the GI50 in the test with HOP-92, in the test on OVCAR-3, in the test on SR, in the test on DU-145, in the test with LOX IMVI and in the test with SNB-19 was > 100 µM (inactive) throughout. For the same molecule, the GI50 in the test on SK-OV-3, with SK-MEL-2, in the test with MDA-MB-231, with MDA-MB-435 and with EKVX was > 100 µM (inactive) in each case.
As for `COC(=O)C1(c2cc3ccccc3n2S(=O)(=O)c2ccccc2)CC2C=CC1NC2` (centres undefined), the GI50 was 2.23 µM (inactive) in the test on HCT-116; 1.75 µM in the test on HCT-15; 2.96 µM (inactive) in the test with A549; 3.11 µM (inactive) with NCI-H460; 6.12 µM (inactive) with SK-MEL-5; 1.79 µM (inactive) in the test with M14. In addition, the GI50 is 1.76 µM (inactive) in the test with RXF 393; 1.52 µM (inactive) in the test with HOP-92; 2.29 µM (inactive) with OVCAR-3; 0.216 µM (active) with SR; 2.4 µM (inactive) in the test with DU-145; 1.74 µM (inactive) in the test on LOX IMVI. Further, the GI50 with SNB-19 is 2.2 µM (inactive); in the test with SK-OV-3 it was 3.41 µM (inactive); with SK-MEL-2, 1.77 µM (inactive); in the test with MDA-MB-231, 1.79 µM (inactive); with MDA-MB-435 it was 1.63 µM (inactive); in the test with EKVX, 4.03 µM (inactive).
As to `O=c1[nH]c(=S)c2cc3c(=S)[nH]c(=O)n(CCC(c4ccccc4)(c4ccccc4)c4ccccc4)c3nc2n1CCC(c1ccccc1)(c1ccccc1)c1ccccc1`, the GI50 in the test with HCT-116 is > 100 µM (inactive); in the test with HCT-15 it was greater than 100 µM; with A549, > 100 µM (inactive); in the test on NCI-H460, > 100 µM (inactive); in the test with SK-MEL-5, > 100 µM (inactive); in the test on Malme-3M it was > 100 µM (inactive). For the same molecule, the GI50 in the test with M14, with HOP-92, with OVCAR-3, in the test with DU-145, in the test on SNB-19 and with SK-OV-3 was > 100 µM (inactive) each time. Besides, the GI50 in the test with SK-MEL-2 was > 100 µM (inactive); in the test on MDA-MB-231 it was 59.4 µM (inactive); in the test on MDA-MB-435, > 100 µM (inactive); in the test with NCI-H522, > 100 µM (inactive); in the test on EKVX, > 100 µM (inactive).
Consider `S=C(N/N=C\C(=N/NC(=S)N1CCCCC1)c1ccccc1)N1CCCCC1`, for which the GI50 in the test with HCT-116 was 2.3 µM (inactive); in the test with HCT-15, 2.4 µM; in the test with A549, 2.28 µM (inactive); in the test with NCI-H460 it was 2.14 µM (inactive); in the test with SK-MEL-5, 1.77 µM (inactive); in the test on Malme-3M, 1.91 µM (inactive). Also, the GI50 in the test with M14 is 1.92 µM (inactive); with RXF 393, 1.85 µM (inactive); with HOP-92, 2.38 µM (inactive); with OVCAR-3, 1.74 µM (inactive); in the test on DU-145, 1.57 µM (inactive); with LOX IMVI, 3.33 µM (inactive). The GI50 was 1.9 µM (inactive) in the test with SNB-19; 1.91 µM (inactive) with SK-OV-3; 2.25 µM (inactive) with SK-MEL-2; 2.43 µM (inactive) in the test with MDA-MB-231; 1.91 µM (inactive) in the test on MDA-MB-435; 1.62 µM (inactive) in the test on NCI-H522. For the same molecule, in the test on EKVX, the GI50 was 1.97 µM (inactive).
